Laboratory results as given in US8952025B2, “Multifunctional radical quenchers and their uses” (Arizona Board of Regents, A Body Corporate of the State of …, priority 2010, dated 2015).
Entries after “also recorded” stand apart in the source; their conditions may differ.

Assays:
[1] = C11-BODIPY581/591 oxidation lipid peroxidation assay in liposomes; conditions: for quenching of lipid peroxidation (retention of C11-BODIPY581/591 fluorescence): 10 mM AAPH, phospholipid liposomes, phosphate buffer, 40° C.
Description: To overcome the problem of spectral overlap using cis-parinaric acid, a fluorescence assay for lipid peroxidation using a lipophilic probe belonging to the BODIPY class of fluorescent dyes was used. C11-BODIPY^581/591 (4,4-difluoro-5(4-phenyl-1,3-butadienyl)-4-bora-3a,4a-diaza-s-indacene-3-propionic acid) fluorescence shifts from red to green upon oxidation. C11-BODIPY^581/591 (Molecular Probes, Eugene, Oreg., USA) stock solution concentrations were determined by measuring the absorption of C11-BODIPY^581/591 at 582 nm using a molar extinction coefficient of 140,000 mol^−1 cm^−1(R. P. Haugland, (1999) Handbook of Fluorescent Probes and Research Chemicals, Molecular Probes, Inc., Eugene, Oreg.). The lipid peroxidation inducer 2,2′-Azobis (2-amidino-propane dihydrochloride) (AAPH) and the antioxidant compound α-tocopherol were obtained from Sigma (St. Louis, Mo., USA). Phospholipid bilayers were prepared from 1-stearoyl-2-oleoyl-phosphatidylcholine (SOPC) and 1,2-dilinoleoyl-phosphatidylcholine (DLPC) and were purchased from Avanti® polar lipids, INC (Alabaster, Ala., USA).
Phosphotidylcholine (PC) liposomes were prepared as described before (Guey-Shuang et al. (1982) Lipids. 17, 403-413). Briefly, DLPC (25 mg) and SOPC (25 mg) were dissolved in chloroform and the solvent was removed by nitrogen evaporation (˜2 hours to give a thin film of PC in a round bottom flask. The lipid film was hydrated with 50 mL of 10 mM Tris-HCl (pH 7.4), 100 mM KCl, shaken and sonicated for 15 seconds. The liposomes obtained were filtered several times through 0.2 μM membrane filter.
C11 BODIPY^581/591 was incorporated into liposomes and oxidized by peroxyl radicals derived from the decomposition of AAPH in presence and absence of the compounds. […] Liposomes were pre-incubated for 10 min with 200 nM C11 BODIPY^581/591 to allow their incorporation into the lipid phase of the liposomes. After the addition of AAPH (10 mM) the decay of red fluorescence was followed at λ exc=570 nm, λ em=600 nm. Relative fluorescence units were normalized to 100% intensity. Results obtained were verified by repeating experiments N=3 independent experiments.

cytochrome c = assay: Cytochrome c reduction assay; assay type: biochemical; conditions: 100 μM compound, 10 μM cytochrome c, absorbance 550 nm
Description: The rate of cytochrome c (10 μM) reduction was measured by monitoring the change in absorbance at 550 nm. Briefly the reaction was initiated by addition of 100 μM of the invention compounds to a mixture containing 50 mM phosphate buffer, 0.1 mM EDTA, pH 7.8, and 10 μM cytochrome c (Sigma, St. Louis, Mo. USA). For cytochrome c reduction by superoxide, xanthine oxidase (0.01 IU/mL) (Sigma, St. Louis, Mo. USA) was used in presence of xanthine (50 μM).

[2] = tested on: bovine heart mitochondrial membranes; assay: Thiobarbituric acid reactive species (TBARS) assay; assay type: biochemical; conditions: H2O2 generated using glucose oxidase
Description: Lipid peroxidation by hydrogen peroxide in bovine heart mitochondrial membranes was determined by measuring the amount of thiobarbituric acid reactive substances released. Bovine heart mitochondria (1 mg protein) prepared as described by Smith (38) were added to 800 μL of 50 mM phosphate buffer, pH 8.0, and subjected to oxidative stress by the addition of 25 mM glucose and 1 U/mL glucose oxidase from Aspergillus niger. Samples were incubated with or without test compounds at 37° C. for 30 minutes. Two hundred μL each of 1% (w/v) thiobarbituric acid and 35% (v/v) perchloric acid, as well as 0.1% (w/v) butylated hydroxytoluene (from a 2% stock solution in DMSO) were added. Samples were heated at 100° C. for 15 minutes. One-mL aliquots of each sample were taken and diluted in 2 mL of water, then extracted once with 2 mL of n-butanol. […] TBARS were determined fluorometrically from the emission spectrum (λex 515 nm; λem 550 nm) using a Varian fluorimeter. The malondialdehyde concentration was determined based on a standard curve created using serial dilutions of 10 mM 1,1,3,3-tetraethoxypropane hydrolyzed in 1% (v/v) H2SO4 at 4° C. overnight. The malondialdehyde concentration was expressed as nmoles manoldialdehyde per mg protein. Protein in aliquots of the homogenates was determined by the bicinchoninic acid method.

CEM leukemia cells = assay: C11-BODIPY581/591 oxidation in cell culture (lipid peroxidation); assay type: cell-based, human; conditions: 2.5 or 1 μM, pretreatment 4 or 24 hours, glutathione depleted
Description: Lipid peroxidation in CEM leukemia cells was detected by utilizing the oxidant-sensitive lipophilic probe C11 BODIPY^581/591. Briefly, CEM cells (5×10^5 cell/mL) were treated with the test compounds at final concentrations of 1 and 2.5 μM, and incubated at 37° C. for 4 or 24 h in a humidified atmosphere containing 5% CO2 in air. Cells were treated with 500 nM C11 BODIPY^581/591 in phenol red-free RPMI-1640 media and incubated at 37° C. in the dark for 30 minutes. The cells were washed twice with phosphate buffered saline and oxidative stress was induced with 5 mM DEM in phenol red-free RPMI-1640 media for 90 minutes. Treated cells were collected by centrifugation at 300×g for 3 minutes and then washed twice with phosphate buffered saline. Cells were resuspended in 250 μL of phosphate buffered saline and were analyzed by FACS (FACS Calibur flow cytometer, Becton Dickinson) to monitor the change in intensity of the C11 BODIPY^581/591-green (oxidized) fluorescence signal.

[3] = Stability of isolated free base on storage; assay type: physicochemical; conditions: orange oil
Description: To a solution of 2.2 mg (4.4 μmol) acetyl ester 35 in 1 mL CH2Cl2 was added 17.5 μL (17.5 μmol) of DIBAL-H at −78° C. The reaction mixture was stirred at same temperature for 2 h than 1 mL of aqueous saturated sodium potassium tartrate was added slowly. The reaction mixture was allowed to warm to room temperature slowly add stirred for 3 h then separated. The aqueous layer was extracted with two portions of 5 mL of ethyl acetate. The combined organic layer was washed with brine, dried (Na2SO4) and concentrated under diminished pressure to give the product C as orange oil. HPLC found retain time in 21.82 min.

SMILES	quenching of lipid peroxidation (retention of C11-BODIPY581/591 fluorescence) [1]	protection against lipid peroxidation ([1]; compound 15 μM, AAPH, liposomes)	reduction of cytochrome c (cytochrome c)	preventing TBARS formation [2]	protection against lipid peroxidation in cells (C11-BODIPY581/591 green fluorescence) (CEM leukemia cells)	stability of isolated compound [3]
Cc1nc(N(C)C)nc(CCCCCCCCCCO)c1O [Compound A, 2-N,N-dimethylamino-5-hydroxy-4-methyl-6-(10-hydroxydecyl)-pyrimidine]	more effective in preventing lipid peroxidation than idebenone and its reduced form (Idebenol); also recorded: much more effective than idebenone and its reduced form in preventing lipid peroxidation	complete protection	clearly reduce cytochrome c	–	–	–
Cc1nc2c(c(CC[C@](C)(O)CCC[C@H](C)CCC[C@H](C)CCCC(C)C)c1O)CCN2C [Compound C, 4-((3R,7R,11R)-3-hydroxy-3,7,11,15-tetramethylhexadecyl)-1,6-dimethyl-2,3-dihydro-1H-pyrrolo[2,3-b]pyridine-5-ol]	prevent lipid peroxidation in a concentration-dependent fashion with scavenging activity much higher than α-tocopherol; also recorded: prevents lipid peroxidation in a concentration-dependent fashion with scavenging activity much greater than that of α-tocopherol and compound C redox core; also recorded: much more effective than α-tocopherol in quenching lipid peroxidation	–	–	more effective in preventing TBARS formation	better protection against lipid peroxidation than α-tocopherol in a concentration and time-dependent fashion; also recorded: clearly superior to α-tocopherol in quenching lipid peroxidation in a time- and dose-dependent fashion	degenerated after one day
